Six compounds from patent US6762198B2, “Dihetero-substituted metalloprotease inhibitors” (The Procter & Gamble Company, priority 1999, dated 2004) can be followed below.

The test system of test [1] is human subject suffering from rheumatoid arthritis. The test is described as follows: Example A: oral tablets in a human subject with rheumatoid arthritis. In kind it is in vivo. The note with it: human 60 kg, three tablets (15 mg compound each) per day orally for 2 years. The procedure:
A tablet composition for oral administration, according to the present invention, is made comprising:
A human subject weighing 60 kg (132 lbs), suffering from rheumatoid arthritis, is treated by a method of this invention. Specifically, for 2 years, a regimen of three tablets per day is administered orally to said subject.

Test [2] relates to human subject suffering from osteoarthritis. The test can be described thus: Example B: oral capsule in a human subject with osteoarthritis. In kind it is in vivo. The note with it: human 90 kg, capsule containing 70 mg daily for 5 years. The procedure:
A capsule for oral administration, according to the present invention, is made comprising:
A human subject weighing 90 kg (198 lbs.), suffering from osteoarthritis, is treated by a method of this invention. Specifically, for 5 years, a capsule containing 70 mg of the compound of Example 3 is administered daily to said subject.

In test [3] the test system is patient having deep corneal abrasion. The test is described as follows: Example C: saline-based eye drop in a patient with deep corneal abrasion. The note with it: 5% w/w saline-based drop to each eye twice a day. It is filed as in vivo, human. The text has this:
A saline-based composition for local administration, according to the present invention, is made comprising:
A patient having deep corneal abrasion applies the drop to each eye twice a day.

For test [4], the system named is patient suffering from chemical bums. The test can be described thus: Example D: topical composition in a patient with chemical burns. It is filed as in vivo, human. Particulars: 0.20% w/v topical composition at each dressing change (b.i.d.). The text has this:
A topical composition for local administration, according to the present invention, is made comprising:
A patient suffering from chemical bums applies the composition at each dressing change (b.i.d.).

Test [5] deals with human subject with a premetastatic tumor. The test can be described thus: Example G: parenteral suspension in a human subject with a premetastatic tumor. Particulars: about 2.0 mL of 100 mg/mL suspension injected beside the tumor twice daily, after 30 days. It is filed as in vivo. The procedure:
A composition for parenteral administration is made comprising:
The above ingredients are mixed, forming a suspension. Approximately 2.0 mL of the suspension is administered, via injection, to a human subject with a premetastatic tumor. The injection site juxtaposes the tumor. This dosage is repeated twice daily, for approximately 30 days.

Test [6] deals with asthma sufferer. The test is described as follows: Example E: inhalation aerosol in an asthma sufferer. It is filed as in vivo, human. Particulars: 0.01 mL of 5.0% w/v inhalation aerosol sprayed into the mouth while inhaling.

Regarding `COc1ccc(-c2ccc(S(=O)(=O)NC(CC(O)CSc3nccs3)C(=O)O)cc2)cc1` (stereo not drawn) [Example 1, 2-[(4′-Methoxy[1,1′-biphenyl]-4-yl)sulfonyl]amino-4-hydroxy-5-[(2-thiazolyl)thio]-pentanoic Acid], the “inflammation, mobility and pain at the end of the treatment period” value in test [1] is “reduced inflammation, and improved mobility without concomitant pain”. As to `O=C(O)C(CC(O)CSc1nccs1)NS(=O)(=O)c1ccc(-c2ccc(Oc3ccccc3)cc2)cc1` (stereo not drawn) [Example 3, 2-[(4′-Phenoxy[1,1′-biphenyl]-4-yl)sulfonyl]amino-4-hydroxy-5-[(2-thiazolyl)thio]pentanoic Acid], in test [2], the “advancement of erosion/fibrillation of the articular cartilage (x-ray, arthroscopy and/or MRI)” value is “no further advancement of erosion/fibrillation of the articular cartilage”. Take `Cc1ccc(C#Cc2ccc(S(=O)(=O)NC(CC(O)CSc3nccs3)C(=O)O)cc2)cc1` (stereo not drawn) [Example 10, 2-[[4-[(4-Methylphenyl)ethynyl]phenyl]sulfonyl]amino-4-hydroxy-5-[(2-thiazolyl)thio]-pentanoic Acid]: in test [3], the corneal healing result was “Healing is speeded, with no visual sequelae”. `COc1ccc(-c2ccc(S(=O)(=O)NC(CC(O)CNc3ccccc3)C(=O)O)cc2)cc1` (stereo not drawn) [Example 19, 2-[(4′-Methoxy[1,1′-biphenyl]-4-yl)sulfonyl]amino-4-hydroxy-5-(phenylamino)-pentanoic Acid]: the scarring entry in test [4] is recorded as “Scarring is substantially diminished”. As for `COc1ccc(-c2ccc(S(=O)(=O)NC(CC(O)CSc3ncc[nH]3)C(=O)O)cc2)cc1` (stereo not drawn) [Example 22, 2-[(4′-Methoxy[1,1′-biphenyl]-4-yl)sulfonyl]amino-4-hydroxy-5[(2-imidazolyl)thio]-pentanoic Acid], in test [5], the “symptoms of the disease” value is on record as “symptoms of the disease subside”. As for `COc1ccc(-c2ccc(S(=O)(=O)NC(CC(O)CSc3n[nH]c(-c4ccccc4)n3)C(=O)O)cc2)cc1` (stereo not drawn) [Example 42, 2-[(4′-Methoxy[1,1′-biphenyl]-4-yl)sulfonyl]amino-4-hydroxy-5-[(5-phenyl-1H-1,2,4-triazol-3-yl)thio]-pentanoic Acid], the asthma symptoms entry in test [6] is reported as “Asthma symptoms are diminished”.
